Source: ChEMBL document CHEMBL1201862, “PubChem BioAssay data set” (2004)
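1) Cells in 96-well plates. 2) Compound, 48 h, 5 concentrations. 3) Linear interpolation between surrounding doses. 4) Unreached endpoint = highest concentration. Here, GI50 denotes the concentration required for 50% inhibition of growth.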 The source made the active and inactive calls. Cut-off read from the data, not from the text of the source: active = GI50 up to about 1.1 µM and inactive = higher.

Legend:
Experiment in all cases: NCI-60 cell line screen, 48 h
[1] = system: HT-29
[2] = system: K562
[3] = system: IGROV-1
[4] = system: TK-10
[5] = system: HOP-62
[6] = system: T47D
[7] = system: CAKI-1
[8] = system: ACHN
[9] = system: PC-3
[10] = system: SR
[11] = system: CCRF-CEM
[12] = system: OVCAR-3
[13] = system: NCI/ADR-RES
[14] = system: MDA-N
[15] = system: BT-549
[16] = system: SNB-19
[17] = system: SK-MEL-5
[18] = system: SF-295
[19] = system: OVCAR-8

Measured: GI50

[O-]c1c[n+](-c2ccccc2)no1
inactive: [1] > 100 µM | [2] > 100 µM | [3] > 100 µM | [4] > 100 µM | [5] > 100 µM | [6] > 100 µM | [7] > 100 µM | [8] > 100 µM | [9] > 100 µM | [10] > 100 µM | [11] > 100 µM | [12] > 100 µM | [13] > 100 µM | [14] > 100 µM | [15] > 100 µM | [16] > 100 µM | [17] > 100 µM | [18] > 100 µM

CN(C)CCSCCO
inactive: [1] > 100 µM | [2] > 100 µM | [3] > 100 µM | [4] > 100 µM | [5] > 100 µM | [6] > 100 µM | [7] > 100 µM | [8] > 100 µM | [9] > 100 µM | [10] > 100 µM | [12] > 100 µM | [19] > 100 µM | [13] > 100 µM | [14] > 100 µM | [15] > 100 µM | [16] > 100 µM | [17] > 100 µM | [18] > 100 µM

O=C(Nc1nc2ccc([N+](=O)[O-])cc2[n+]([O-])n1)C(F)(F)F
inactive: [1] 23.3 µM | [2] 20 µM | [3] 18 µM | [4] 44.2 µM | [6] 35.2 µM | [7] 57.3 µM | [8] 22 µM | [9] 28.2 µM | [10] 29.5 µM | [11] 26.5 µM | [12] > 10 µM | [19] 21 µM | [13] 32.4 µM | [14] 18.7 µM | [15] 94.2 µM | [16] 49.8 µM | [17] 12.5 µM | [18] 27.9 µM

OCC1OC(OCC(O)C(O)C(O)C(/C=N/Nc2ccccc2)=N/Nc2ccccc2)C(O)C(O)C1O (stereo not given)
inactive: [1] > 100 µM | [3] 5.19 µM | [4] > 100 µM | [5] > 100 µM | [6] 17 µM | [7] 34.4 µM | [8] 51.9 µM | [9] > 100 µM | [10] > 100 µM | [11] > 100 µM | [12] > 100 µM | [19] > 100 µM | [13] > 100 µM | [14] > 100 µM | [15] > 100 µM | [16] > 100 µM | [17] > 100 µM | [18] 78.9 µM

O=C(O)CSC(CC(=O)c1ccc(Cl)cc1)c1ccc(Cl)cc1 (stereo not given)
inactive: [1] 22.1 µM | [2] 32.1 µM | [3] 19.7 µM | [4] 21.4 µM | [5] 32.9 µM | [6] 29.3 µM | [7] 35.3 µM | [8] 79.1 µM | [9] 37.4 µM | [10] 2.36 µM | [11] 8.71 µM | [12] 20.7 µM | [19] 22.3 µM | [13] 38.7 µM | [14] 20.6 µM | [15] 29.9 µM | [16] 42 µM | [17] 34.4 µM | [18] 42.4 µM

CCOc1cc(C2CC(c3ccc(NS(=O)(=O)c4cc([N+](=O)[O-])ccc4C)cc3)=NN2c2ccc([N+](=O)[O-])cc2[N+](=O)[O-])ccc1O (stereo not given)
inactive: [1] 41.6 µM | [2] 21.3 µM | [3] 12.5 µM | [4] 15.7 µM | [5] 10.7 µM | [6] 9.68 µM | [7] 16.9 µM | [8] 6.76 µM | [9] 20 µM | [10] 28.5 µM | [11] 43.7 µM | [12] 11.4 µM | [19] 5.22 µM | [13] 8.04 µM | [14] 12.2 µM | [15] 18 µM | [16] 7.46 µM | [17] 10.4 µM | [18] 12.1 µM

Cc1cc2nc3c(C#N)c(C)c(CCCl)c(Cl)n3c2cc1C
inactive: [1] 2.46 µM | [2] 2.39 µM | [3] 2.09 µM | [4] 2.18 µM | [5] 2.44 µM | [6] 3.13 µM | [7] 2.88 µM | [8] 5.3 µM | [9] 5.6 µM | [10] 2.29 µM | [11] 2.34 µM | [12] 1.75 µM | [19] 2.63 µM | [13] 3.18 µM | [14] 2.61 µM | [15] 2.49 µM | [16] 10.8 µM | [17] 4.39 µM | [18] 3.49 µM

Cc1cc(N(CCC#N)CCC#N)ccc1C(=N/NC(=O)c1cc(Cl)ccc1O)/N=N/c1cccc(Cl)c1
inactive: [1] 16.1 µM | [2] 15.7 µM | [3] 1.4 µM | [4] 16.5 µM | [5] 13.2 µM | [6] 15.4 µM | [7] 17.9 µM | [8] 13 µM | [9] 10.1 µM | [10] 6.04 µM | [11] 4.41 µM | [12] 3.56 µM | [19] 12.1 µM | [13] 16.3 µM | [14] 29.5 µM | [15] 14.8 µM | [16] 22.9 µM | [17] 13.7 µM | [18] 22 µM

CC(C(=O)O)C1Nc2ccccc2NC1=O (stereo not given)
inactive: [1] > 100 µM | [2] > 100 µM | [3] > 100 µM | [4] > 100 µM | [6] > 100 µM | [7] > 100 µM | [8] > 100 µM | [9] > 100 µM | [10] 65.6 µM | [11] 14.2 µM | [12] > 100 µM | [19] > 100 µM | [13] > 100 µM | [14] > 100 µM | [15] > 100 µM | [16] > 100 µM | [17] > 100 µM | [18] > 100 µM

O=c1[nH]c2cc3[nH]c4ncccc4c(=O)c3cc2[nH]1
inactive: [1] > 10 µM | [3] > 10 µM | [4] > 10 µM | [5] > 10 µM | [6] > 10 µM | [7] > 10 µM | [8] > 10 µM | [9] > 10 µM | [10] > 10 µM | [11] > 10 µM | [12] > 10 µM | [19] > 10 µM | [13] > 10 µM | [14] > 10 µM | [15] > 10 µM | [16] > 10 µM | [17] > 10 µM | [18] > 10 µM

O=C1c2cccnc2S(=O)(=O)N1c1ccc([N+](=O)[O-])cc1
inactive: [1] > 100 µM | [3] > 100 µM | [4] > 100 µM | [5] > 100 µM | [6] > 100 µM | [7] > 100 µM | [8] > 100 µM | [9] > 100 µM | [10] 29.9 µM | [11] 68.5 µM | [12] > 100 µM | [19] > 100 µM | [13] > 100 µM | [14] > 100 µM | [15] > 100 µM | [16] > 100 µM | [17] > 100 µM | [18] > 100 µM

Cc1ccc(C2(O)CS/C(=N\C34CC5CC(CC(C5)C3)C4)N2C(P(=O)(O)O)P(=O)(O)O)cc1 (stereo not given)
inactive: [1] > 100 µM | [2] 42.7 µM | [3] > 100 µM | [4] > 100 µM | [5] 49.1 µM | [6] 80.2 µM | [7] > 100 µM | [8] > 100 µM | [9] 79.3 µM | [10] 29.2 µM | [12] > 100 µM | [19] 86.7 µM | [13] 24.2 µM | [14] 42 µM | [15] > 100 µM | [16] 82.2 µM | [18] 44.4 µM

Nc1ncn(C2OC(COP(=O)(O)O)C(O)C2O)c(=O)n1 (stereo not given)
inactive: [1] > 100 µM | [2] > 90.8 µM | [3] > 100 µM | [4] > 100 µM | [5] > 77.4 µM | [6] > 100 µM | [7] > 71.9 µM | [8] 54.6 µM | [9] > 100 µM | [10] > 91.6 µM | [11] 1.87 µM | [12] > 100 µM | [19] 40.7 µM | [13] > 100 µM | [14] > 100 µM | [15] > 100 µM | [16] > 100 µM | [17] > 100 µM | [18] > 100 µM

C=C(C)/C=C/C(O)[C@](C)(O)[C@H]1[C@H](O)C[C@@]2(C)[C@@H]3CCc4c(cc(OC5OC(CO)C(O)C(O)C5O)c(O)c4C)C3(C)C(=O)C[C@]12C (stereo not given in full)
inactive: [1] > 100 µM | [2] > 100 µM | [3] > 100 µM | [4] > 100 µM | [5] > 100 µM | [6] > 100 µM | [7] > 100 µM | [8] > 100 µM | [9] > 100 µM | [10] > 100 µM | [11] > 100 µM | [12] > 100 µM | [19] > 100 µM | [13] > 100 µM | [14] > 100 µM | [15] > 10 µM | [16] > 100 µM | [17] > 100 µM | [18] > 100 µM

CC1(C)CCC[C@]2(C)[C@@H](C=O)C(C=O)=CC[C@@H]12 [POLYGODIAL]
inactive: [1] 16.4 µM | [3] 19 µM | [4] 25.9 µM | [5] 30.6 µM | [6] 19.8 µM | [7] 6.82 µM | [8] 16.9 µM | [9] 27.7 µM | [10] 18.2 µM | [11] 20.3 µM | [12] 14.9 µM | [19] 16.4 µM | [13] 18.6 µM | [14] 13.6 µM | [15] 25.9 µM | [16] 18.2 µM | [17] 15.6 µM | [18] 21.9 µM
